{"source": "patent US20230000997A1", "about": "“PROCESSES OF PREPARING POLYGLUTAMATED ANTIFOLATES AND USES OF THEIR COMPOSITIONS” (L.E.A.F. HOLDINGS GROUP LLC, priority 2019, published 2023)", "assay": "Applicant's experiments with FITC on liposomes (immunostimulant / detectable marker)", "conditions": "reagent attached to liposome exterior", "data": [{"substance": "fluorescein isothiocyanate [FITC]", "values": [{"measurement": "function as immunostimulant and detectable marker", "result": "serves as both an immunostimulant and a detectable marker"}]}]}
